Values of other authors as cited in patent US20210145797A1, “COMPOSITIONS FOR TREATING SKIN” (UNIVERSITY OF FLORIDA RESEARCH FOUNDATION, INCORPORATED, priority 2018, published 2021).

System: herpes simplex
Conditions: topical over-the-counter treatment of herpes simplex

CCCCCCCCCCCCCCCCCCCCCCO [N-docosanol]
improvement of time of healing (4.1 days to 2.5 days): 1.5 days
time of healing (median) (from a median of 4.1 days): 2.5 days
